Literature values in patent publication US20220054659A1, “PSMA-TARGETED PAMAM DENDRIMERS FOR SPECIFIC DELIVERY OF IMAGING, CONTRAST AND THERAPEUTIC AGENTS” (The Johns Hopkins University, priority 2018, published 2022).

Molecular target: PSMA (Homo sapiens, UniProt Q04609)
Sequence (Q04609 whole entry, species assumed): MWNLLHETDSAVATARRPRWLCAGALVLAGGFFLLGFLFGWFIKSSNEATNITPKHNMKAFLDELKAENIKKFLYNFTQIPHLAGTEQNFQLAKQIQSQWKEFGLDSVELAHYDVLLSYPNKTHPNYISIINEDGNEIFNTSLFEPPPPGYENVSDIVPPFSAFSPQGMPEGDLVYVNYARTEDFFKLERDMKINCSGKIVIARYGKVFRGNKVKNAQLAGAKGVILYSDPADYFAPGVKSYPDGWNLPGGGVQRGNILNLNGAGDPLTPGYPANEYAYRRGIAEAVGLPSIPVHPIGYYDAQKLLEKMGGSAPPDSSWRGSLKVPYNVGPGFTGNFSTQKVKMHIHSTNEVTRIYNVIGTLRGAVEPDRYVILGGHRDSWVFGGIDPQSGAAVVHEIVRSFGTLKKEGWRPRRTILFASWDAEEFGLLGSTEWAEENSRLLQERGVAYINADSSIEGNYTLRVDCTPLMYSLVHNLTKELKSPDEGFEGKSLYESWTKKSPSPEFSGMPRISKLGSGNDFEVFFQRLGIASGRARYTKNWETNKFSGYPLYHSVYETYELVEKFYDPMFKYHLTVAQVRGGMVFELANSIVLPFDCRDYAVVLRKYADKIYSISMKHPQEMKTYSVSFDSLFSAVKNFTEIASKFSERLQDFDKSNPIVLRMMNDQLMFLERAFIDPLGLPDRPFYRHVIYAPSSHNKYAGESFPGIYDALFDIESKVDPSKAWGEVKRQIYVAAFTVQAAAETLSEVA

NCCCC[C@H](NC(=O)N[C@@H](CCC(=O)O)C(=O)O)C(=O)O [Lys-Glu-urea]
affinity to PSMA: picomolar
